This series in a line: Solubility of cyclooctasulfur, cyclododecasulfur and crystalline polymeric sulfur in carbon disulfide, chlorobenzene and para-xylene (supernatant sulfur content by Uniquant). The class given is physicochemical. The protocol: Samples were also analyzed using X-ray fluorescence and the UniQuant software package. UniQuant (UQ) is an x-ray fluorescence (XRF) analysis tool that affords standardless XRF analysis of samples. Samples can then be semi-quantitatively analyzed for up to 72 elements beginning with row three in the periodic table (i.e. Na to higher Z). The data are mathematically corrected for matrix differences between calibration standards and samples as well as absorption and enhancement effects; i.e. inter-element effects. Some factors that can affect the quality of results include granularity in the sample (leading to shadow effects), mineralogical effects (due to sample inhomogeneity), insufficient sample size, and lack of knowledge of the sample matrix. In cases where a sample was amenable to both, the XRF UQ analysis and the ICP-OES (i.e. quantitative) analysis generally agree within +/−10%. Samples were analyzed for Zn, Br, Cl, and S content by UQ.
Fifty grams of p-xylene was added to each of three identical 100-milliliter jacketed glass vessels fitted with a circulating heating bath, cooling water condenser, magnetic stir bar and stir plate, and nitrogen purge. All vessels were heated to the desired temperature, and cyclooctasulfur, cyclododecasulfur (prepared as in Example 2), and unoiled commercial crystalline polymeric sulfur (Crystex™) was added in sufficient quantities to each of the glass vessels to allow undissolved solids to remain after dissolution and equilibration of the mixture. The equilibration period typically lasted 2 to 8 hours, during which the contents of the vessel were maintained at the desired temperature and stirred continuously. Upon equilibration, supernatant liquid was withdrawn from the vessels via a heated fritted glass pipette (heated to the same temperature as the solution). The supernatants were analyzed by Uniquant to determine sulfur content, indicating the solubility of the sulfur species at the vessel temperature. Similar experiments were conducted for carbon disulfide and chlorobenzene for each of the three solutes.

A value given as a limit tells only on which side of the number the result lay.

In the case of `S1SSSSSSS1` [Cyclooctasulfur, cyclooctasulfur], the “Solubility relative to cyclododecasulfur” value (in p-xylene, chlorobenzene and CS2, depending on temperature) is reported as 30 to 200 times. Besides, the “Solubility in weight % of solute in solvent” value (“Solubility in weight %” below) amounted to 32 wt % (solvent CS2, 22 °C); 48 wt % (solvent CS2, 45 °C); 2.4 wt % (solvent chlorobenzene, 22 °C); 6.2 wt % (solvent chlorobenzene, 45 °C); 21.7 wt % (solvent chlorobenzene, 115 °C); 2.3 wt % (solvent p-xylene, 22 °C). Moreover, the “Solubility in weight %” value runs as follows: (solvent p-xylene, 45 °C) 5.6 wt %; (solvent p-xylene, 115 °C) 18.7 wt %.
In the case of `S1SSSSSSSSSSS1` [Cyclododecasulfur, cyclododecasulfur], where the note is “in p-xylene, chlorobenzene and CS2”, the “Solubility relative to polymeric sulfur” value is “at least an order of magnitude more soluble”. For the same molecule, the “Solubility in weight %” value was 0.2 wt % (solvent CS2, 22 °C); 0.5 wt % (solvent CS2, 45 °C); 0.015 wt % (solvent chlorobenzene, 45 °C); 0.44 wt % (solvent chlorobenzene, 115 °C); less than 0.05 wt % (solvent p-xylene, 45 °C); 0.4 wt % (solvent p-xylene, 115 °C).

Values taken from patent US10000380B2, “Method for the manufacture of polymeric sulfur” (EASTMAN CHEMICAL COMPANY, priority 2016, dated 2018).
